# According to ChEMBL document CHEMBL1201861, “Genomics of Drug Sensitity in Cancer screening data, Wellcome Trust Sanger Institute”:
# Legend:
# Assay in all cases: cells
# COR-L23 = format: functional, cell-based; conditions: Homo sapiens;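 also: cell viability assay measuring how strongly compounds suppress growth of COR-L23 cells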
# Description: SANGER: Inhibition of human COR-L23 cell growth in a cell viability assay.
# Ca9-22 = format: functional, cell-based; conditions: Homo sapiens;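 also: growth inhibition of Ca9-22 cells, read out with a cell viability assay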
# Description: SANGER: Inhibition of human Ca9-22 cell growth in a cell viability assay.
# Calu-3 = format: functional, cell-based; conditions: Homo sapiens;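 also: growth inhibition of human Calu-3 cells, determined with a cell viability assay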
# Description: SANGER: Inhibition of human Calu-3 cell growth in a cell viability assay.
# D-336MG = format: functional, cell-based, Homo sapiens; conditions: Homo sapiens, D-336MG
# Description: SANGER: Inhibition of human D-336MG cell growth in a cell viability assay.
# D-542MG = format: functional, cell-based; conditions: Homo sapiens
# Description: SANGER: Inhibition of human D-542MG cell growth in a cell viability assay.
# DBTRG-05MG = format: functional, cell-based; conditions: Homo sapiens;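 also: cell viability assay measuring growth inhibition of human DBTRG-05MG cells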
# Description: SANGER: Inhibition of human DBTRG-05MG cell growth in a cell viability assay.
# Daoy = format: functional, cell-based; conditions: Homo sapiens;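 also: daoy cell growth inhibition, read out as cell viability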
# Description: SANGER: Inhibition of human Daoy cell growth in a cell viability assay.
# Detroit 562 = format: functional, cell-based; conditions: Homo sapiens;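 also: growth inhibition of human Detroit 562 cells, read out by a cell viability assay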
# Description: SANGER: Inhibition of human Detroit562 cell growth in a cell viability assay.
# EFM-19 = format: functional, cell-based; conditions: Homo sapiens;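 also: growth inhibition of human EFM-19 cells, measured in a cell viability assay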
# Description: SANGER: Inhibition of human EFM-19 cell growth in a cell viability assay.
# EHEB = format: functional, cell-based; conditions: Homo sapiens;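 also: growth inhibition of human EHEB cells, read out with a cell viability assay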
# Description: SANGER: Inhibition of human EHEB cell growth in a cell viability assay.
# GDM-1 = format: functional, cell-based, Homo sapiens; conditions: Homo sapiens, GDM-1; read-out: IC50;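 also: cell viability readout used to measure growth inhibition of human GDM-1 cells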
# Description: SANGER: Inhibition of human GDM-1 cell growth in a cell viability assay.
# HGC-27 = format: functional, cell-based; conditions: Homo sapiens;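 also: growth inhibition of human HGC-27 cells, read out in a cell viability assay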
# Description: SANGER: Inhibition of human HGC-27 cell growth in a cell viability assay.
# HMV-2 cell line = format: functional, cell-based; conditions: Homo sapiens;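 also: growth inhibition of HMV-II cells, read out with a cell viability assay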
# Description: SANGER: Inhibition of human HMV-II cell growth in a cell viability assay.
# HN = format: functional, cell-based; conditions: Homo sapiens
# Description: SANGER: Inhibition of human HN cell growth in a cell viability assay.
# HSC-3 = format: functional, cell-based; conditions: Homo sapiens
# Description: SANGER: Inhibition of human HSC-3 cell growth in a cell viability assay.
# HT-1080 = format: functional, cell-based; conditions: Homo sapiens
# Description: SANGER: Inhibition of human HT-1080 cell growth in a cell viability assay.
# HT-3 = format: functional, cell-based; conditions: Homo sapiens;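 also: growth inhibition measured with a cell viability readout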
# Description: SANGER: Inhibition of human HT-3 cell growth in a cell viability assay.
# HTC-C3 = format: functional, cell-based; conditions: Homo sapiens;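 also: inhibition of cell growth, read out with a cell viability assay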
# Description: SANGER: Inhibition of human HTC-C3 cell growth in a cell viability assay.
# IST-SL2 = format: functional, cell-based, Homo sapiens; conditions: Homo sapiens, IST-SL2;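 also: growth inhibition of human IST-SL2 cells, read out by a cell viability assay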
# Description: SANGER: Inhibition of human IST-SL2 cell growth in a cell viability assay.
# KMOE-2 = format: functional, cell-based, Homo sapiens; conditions: Homo sapiens, KMOE-2;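 also: growth inhibition of human KMOE-2 cells, read out with a cell viability assay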
# Description: SANGER: Inhibition of human KMOE-2 cell growth in a cell viability assay.
# KYSE-180 = format: functional, cell-based; conditions: Homo sapiens;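 also: growth inhibition of KYSE-180 cells, read out with a cell viability assay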
# Description: SANGER: Inhibition of human KYSE-180 cell growth in a cell viability assay.
# MG-63 = format: functional, cell-based; conditions: Homo sapiens;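 also: growth inhibition of human MG-63 cells, read out with a cell viability assay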
# Description: SANGER: Inhibition of human MG-63 cell growth in a cell viability assay.
# MKN-45 = format: functional, cell-based; conditions: Homo sapiens;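 also: growth inhibition of human MKN-45 cells, measured with a cell viability assay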
# Description: SANGER: Inhibition of human MKN45 cell growth in a cell viability assay.
# MeWo = format: functional, cell-based; conditions: Homo sapiens;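 also: growth inhibition of MeWo cells, determined by a cell viability readout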
# Description: SANGER: Inhibition of human Mewo cell growth in a cell viability assay.
# NCI-H1437 = format: functional, cell-based; conditions: Homo sapiens;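 also: growth inhibition of human NCI-H1437 cells, read out by a cell viability assay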
# Description: SANGER: Inhibition of human NCI-H1437 cell growth in a cell viability assay.
# NCI-H1703 = format: functional, cell-based; conditions: Homo sapiens;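 also: growth inhibition of NCI-H1703 cells, read out via a cell viability assay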
# Description: SANGER: Inhibition of human NCI-H1703 cell growth in a cell viability assay.
# NCI-H1755 = format: functional, cell-based; conditions: Homo sapiens;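 also: cell viability readout used to measure growth inhibition of NCI-H1755 cells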
# Description: SANGER: Inhibition of human NCI-H1755 cell growth in a cell viability assay.
# NCI-H1793 = format: functional, cell-based; conditions: Homo sapiens;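 also: cell growth inhibition, read out by a cell viability assay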
# Description: SANGER: Inhibition of human NCI-H1793 cell growth in a cell viability assay.
# NCI-H2009 = format: functional, cell-based; conditions: Homo sapiens;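 also: cell viability assay measuring inhibition of NCI-H2009 cell growth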
# Description: SANGER: Inhibition of human NCI-H2009 cell growth in a cell viability assay.
# NCI-H2030 = format: functional, cell-based; conditions: Homo sapiens;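 also: growth inhibition of human NCI-H2030 cells, read out by a cell viability assay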
# Description: SANGER: Inhibition of human NCI-H2030 cell growth in a cell viability assay.
# NCI-H2228 = format: functional, cell-based; conditions: Homo sapiens;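 also: growth inhibition of human NCI-H2228 cells, read out by a cell viability assay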
# Description: SANGER: Inhibition of human NCI-H2228 cell growth in a cell viability assay.
# NCI-H2347 = format: functional, cell-based; conditions: Homo sapiens;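 also: growth inhibition of the cell line, read out with a cell viability assay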
# Description: SANGER: Inhibition of human NCI-H2347 cell growth in a cell viability assay.
# NCI-H64 = format: functional, cell-based, Homo sapiens; conditions: Homo sapiens, NCI-H64;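 also: growth inhibition of NCI-H64 cells, read out with a cell viability assay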
# Description: SANGER: Inhibition of human NCI-H64 cell growth in a cell viability assay.
# NCI-H716 = format: functional, cell-based, Homo sapiens; conditions: Homo sapiens, NCI-H716;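 also: growth inhibition of human NCI-H716 cells, measured by a cell viability assay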
# Description: SANGER: Inhibition of human NCI-H716 cell growth in a cell viability assay.
# PFSK-1 = format: functional, cell-based; conditions: Homo sapiens;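 also: cell viability assay measuring how strongly compounds suppress growth of human PFSK-1 cells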
# Description: SANGER: Inhibition of human PFSK-1 cell growth in a cell viability assay.
# RD = format: functional, cell-based; conditions: Homo sapiens
# Description: SANGER: Inhibition of human RD cell growth in a cell viability assay.
# RERF-LC-MS = format: functional, cell-based; conditions: Homo sapiens;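 also: growth inhibition of human RERF-LC-MS cells, read out by a cell viability assay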
# Description: SANGER: Inhibition of human RERF-LC-MS cell growth in a cell viability assay.
# RL95-2 = format: functional, cell-based, Homo sapiens; conditions: Homo sapiens, RL95-2;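 also: RL95-2 growth inhibition determined through a cell viability readout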
# Description: SANGER: Inhibition of human RL95-2 cell growth in a cell viability assay.
# RO82-W-1 = format: functional, cell-based; conditions: Homo sapiens;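 also: growth inhibition of human RO82-W-1 cells, measured with a cell viability assay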
# Description: SANGER: Inhibition of human RO82-W-1 cell growth in a cell viability assay.
# RPMI-2650 = format: functional, cell-based; conditions: Homo sapiens
# Description: SANGER: Inhibition of human RPMI-2650 cell growth in a cell viability assay.
# Raji = format: functional, cell-based, Homo sapiens; conditions: Homo sapiens, Raji;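 also: cell viability assay measuring inhibition of Raji cell growth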
# Description: SANGER: Inhibition of human Raji cell growth in a cell viability assay.
# S-117 = format: functional, cell-based; conditions: Homo sapiens
# Description: SANGER: Inhibition of human S-117 cell growth in a cell viability assay.
# SK-LU-1 = format: functional, cell-based; conditions: Homo sapiens;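 also: cell viability assay measuring growth inhibition of human SK-LU-1 cells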
# Description: SANGER: Inhibition of human SK-LU-1 cell growth in a cell viability assay.
# SK-MEL-24 = format: functional, cell-based; conditions: Homo sapiens;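 also: growth inhibition read out by a cell viability assay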
# Description: SANGER: Inhibition of human SK-MEL-24 cell growth in a cell viability assay.
# SNU-387 = format: functional, cell-based; conditions: Homo sapiens
# Description: SANGER: Inhibition of human SNU-387 cell growth in a cell viability assay.
# SW13 = format: functional, cell-based; conditions: Homo sapiens;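 also: IC50 is inhibition of SW13 cell growth, read out with a cell viability assay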
# Description: SANGER: Inhibition of human SW13 cell growth in a cell viability assay.
# SW1417 = format: functional, cell-based; conditions: Homo sapiens;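 also: growth inhibition of human SW1417 cells, read out with a cell viability assay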
# Description: SANGER: Inhibition of human SW1417 cell growth in a cell viability assay.
# SW626 = format: functional, cell-based; conditions: Homo sapiens;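 also: growth inhibition of SW626 cells, measured with a cell viability assay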
# Description: SANGER: Inhibition of human SW626 cell growth in a cell viability assay.
# T98G = format: functional, cell-based; conditions: Homo sapiens;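 also: growth inhibition of T98G cells, read out by a cell viability assay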
# Description: SANGER: Inhibition of human T98G cell growth in a cell viability assay.
# A673 = format: functional, cell-based; conditions: Homo sapiens;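 also: growth inhibition of human A673 cells, read out through a cell viability assay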
# Description: SANGER: Inhibition of human A673 cell growth in a cell viability assay.
# AGS = format: functional, cell-based; conditions: Homo sapiens;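 also: growth inhibition of AGS cells, determined with a cell viability assay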
# Description: SANGER: Inhibition of human AGS cell growth in a cell viability assay.
# ASPC1 = format: functional, cell-based; conditions: Homo sapiens;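 also: growth inhibition of AsPC-1 cells, read out with a cell viability assay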
# Description: SANGER: Inhibition of human AsPC-1 cell growth in a cell viability assay.
# BC-3 = format: functional, cell-based, Homo sapiens; conditions: Homo sapiens, BC-3;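 also: cell viability assay measuring growth inhibition of human BC-3 cells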
# Description: SANGER: Inhibition of human BC-3 cell growth in a cell viability assay.
# BFTC-905 = format: functional, cell-based; conditions: Homo sapiens
# Description: SANGER: Inhibition of human BFTC-905 cell growth in a cell viability assay.
# BFTC-909 = format: functional, cell-based; conditions: Homo sapiens
# Description: SANGER: Inhibition of human BFTC-909 cell growth in a cell viability assay.
# CA46 = format: functional, cell-based, Homo sapiens; conditions: Homo sapiens, CA46;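 also: growth inhibition of human CA46 cells, read out by a cell viability assay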
# Description: SANGER: Inhibition of human CA46 cell growth in a cell viability assay.
# CAL-120 = format: functional, cell-based; conditions: Homo sapiens;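 also: cell growth inhibition, read out as cell viability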
# Description: SANGER: Inhibition of human CAL-120 cell growth in a cell viability assay.
# CAL-85-1 = format: functional, cell-based; conditions: Homo sapiens;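 also: growth inhibition of human CAL-85-1 cells, read out with a cell viability assay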
# Description: SANGER: Inhibition of human CAL-85-1 cell growth in a cell viability assay.
# UACC-812 = format: functional, cell-based; conditions: Homo sapiens
# Description: SANGER: Inhibition of human UACC-812 cell growth in a cell viability assay.
# CAPAN-1 = format: functional, cell-based; conditions: Homo sapiens;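 also: growth suppression of CAPAN-1 cells, read out by a cell viability assay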
# Description: SANGER: Inhibition of human CAPAN-1 cell growth in a cell viability assay.
compound,measurement,setting,value
COC(=O)[C@H](CCSC)NC(=O)c1ccc(NC[C@@H](N)CS)cc1-c1ccccc1,IC50,COR-L23,> 1.02 µM
same,IC50,Ca9-22,> 1.02 µM
same,IC50,Calu-3,> 1.02 µM
same,IC50,D-336MG,> 1.02 µM
same,IC50,D-542MG,> 1.02 µM
same,IC50,DBTRG-05MG,> 1.02 µM
same,IC50,Daoy,> 1.02 µM
same,IC50,Detroit 562,> 1.02 µM
same,IC50,EFM-19,> 1.02 µM
same,IC50,EHEB,> 1.02 µM
same,IC50,GDM-1,> 1.02 µM
same,IC50,HGC-27,> 1.02 µM
same,IC50,HMV-2 cell line,> 1.02 µM
same,IC50,HN,> 1.02 µM
same,IC50,HSC-3,> 1.02 µM
same,IC50,HT-1080,> 1.02 µM
same,IC50,HT-3,> 1.02 µM
same,IC50,HTC-C3,> 1.02 µM
same,IC50,IST-SL2,> 1.02 µM
same,IC50,KMOE-2,> 1.02 µM
same,IC50,KYSE-180,> 1.02 µM
same,IC50,MG-63,> 1.02 µM
same,IC50,MKN-45,> 1.02 µM
same,IC50,MeWo,> 1.02 µM
same,IC50,NCI-H1437,> 1.02 µM
same,IC50,NCI-H1703,> 1.02 µM
same,IC50,NCI-H1755,> 1.02 µM
same,IC50,NCI-H1793,> 1.02 µM
same,IC50,NCI-H2009,> 1.02 µM
same,IC50,NCI-H2030,> 1.02 µM
same,IC50,NCI-H2228,> 1.02 µM
same,IC50,NCI-H2347,> 1.02 µM
same,IC50,NCI-H64,> 1.02 µM
same,IC50,NCI-H716,> 1.02 µM
same,IC50,PFSK-1,> 1.02 µM
same,IC50,RD,> 1.02 µM
same,IC50,RERF-LC-MS,> 1.02 µM
same,IC50,RL95-2,> 1.02 µM
same,IC50,RO82-W-1,> 1.02 µM
same,IC50,RPMI-2650,> 1.02 µM
same,IC50,Raji,> 1.02 µM
same,IC50,S-117,> 1.02 µM
same,IC50,SK-LU-1,> 1.02 µM
same,IC50,SK-MEL-24,> 1.02 µM
same,IC50,SNU-387,> 1.02 µM
same,IC50,SW13,> 1.02 µM
same,IC50,SW1417,> 1.02 µM
same,IC50,SW626,> 1.02 µM
same,IC50,T98G,> 1.02 µM
same,IC50,A673,> 1.02 µM
same,IC50,AGS,> 1.02 µM
same,IC50,ASPC1,> 1.02 µM
same,IC50,BC-3,> 1.02 µM
same,IC50,BFTC-905,> 1.02 µM
same,IC50,BFTC-909,> 1.02 µM
same,IC50,CA46,> 1.02 µM
same,IC50,CAL-120,> 1.02 µM
same,IC50,CAL-85-1,> 1.02 µM
same,IC50,UACC-812,> 1.02 µM
same,IC50,CAPAN-1,> 1.02 µM
O=S(=O)(O)c1ccc2cc(/N=N/c3cc(S(=O)(=O)O)c4cccnc4c3O)ccc2c1,IC50,COR-L23,> 16 µM
same,IC50,Ca9-22,> 16 µM
same,IC50,Calu-3,> 16 µM
same,IC50,D-336MG,> 16 µM
same,IC50,D-542MG,> 16 µM
same,IC50,DBTRG-05MG,> 16 µM
same,IC50,Daoy,> 16 µM
same,IC50,Detroit 562,> 16 µM
same,IC50,EFM-19,> 16 µM
same,IC50,EHEB,> 16 µM
same,IC50,GDM-1,> 16 µM
same,IC50,HGC-27,> 16 µM
same,IC50,HMV-2 cell line,> 16 µM
same,IC50,HN,> 16 µM
same,IC50,HSC-3,> 16 µM
same,IC50,HT-1080,> 16 µM
same,IC50,HT-3,> 16 µM
same,IC50,HTC-C3,> 16 µM
same,IC50,IST-SL2,> 16 µM
same,IC50,KMOE-2,> 16 µM
same,IC50,KYSE-180,> 16 µM
same,IC50,MG-63,> 16 µM
same,IC50,MKN-45,> 16 µM
same,IC50,MeWo,> 16 µM
same,IC50,NCI-H1437,> 16 µM
same,IC50,NCI-H1703,> 16 µM
same,IC50,NCI-H1755,> 16 µM
same,IC50,NCI-H1793,> 16 µM
same,IC50,NCI-H2009,> 16 µM
same,IC50,NCI-H2030,> 16 µM
same,IC50,NCI-H2228,> 16 µM
same,IC50,NCI-H2347,> 16 µM
same,IC50,NCI-H64,> 16 µM
same,IC50,NCI-H716,> 16 µM
same,IC50,PFSK-1,> 16 µM
same,IC50,RD,> 16 µM
same,IC50,RERF-LC-MS,> 16 µM
same,IC50,RL95-2,> 16 µM
same,IC50,RO82-W-1,> 16 µM
same,IC50,RPMI-2650,> 16 µM
same,IC50,Raji,> 16 µM
same,IC50,S-117,> 16 µM
same,IC50,SK-LU-1,> 16 µM
same,IC50,SK-MEL-24,> 16 µM
same,IC50,SNU-387,> 16 µM
same,IC50,SW13,> 16 µM
same,IC50,SW1417,> 16 µM
same,IC50,SW626,> 16 µM
same,IC50,T98G,> 16 µM
same,IC50,A673,> 16 µM
same,IC50,AGS,> 16 µM
same,IC50,ASPC1,> 16 µM
same,IC50,BC-3,> 16 µM
same,IC50,BFTC-905,> 16 µM
same,IC50,BFTC-909,> 16 µM
same,IC50,CA46,> 16 µM
same,IC50,CAL-120,> 16 µM
same,IC50,CAL-85-1,> 16 µM
same,IC50,UACC-812,> 16 µM
same,IC50,CAPAN-1,> 16 µM
Cc1ccc(C(=O)Nc2ccc(CN3CCN(C)CC3)c(C(F)(F)F)c2)cc1C#Cc1cnc2cccnn12 [PONATINIB],IC50,COR-L23,> 0.512 µM
same,IC50,Ca9-22,> 0.512 µM
same,IC50,Calu-3,> 0.512 µM
same,IC50,D-336MG,> 0.512 µM
same,IC50,D-542MG,> 0.512 µM
same,IC50,DBTRG-05MG,0.381 µM
same,IC50,Daoy,> 0.512 µM
same,IC50,Detroit 562,> 0.512 µM
same,IC50,EFM-19,> 0.512 µM
same,IC50,EHEB,> 0.512 µM
same,IC50,GDM-1,0.0183 µM
same,IC50,HGC-27,0.294 µM
same,IC50,HMV-2 cell line,> 0.512 µM
same,IC50,HN,> 0.512 µM
same,IC50,HSC-3,> 0.512 µM
same,IC50,HT-1080,> 0.512 µM
same,IC50,HT-3,> 0.512 µM
same,IC50,HTC-C3,> 0.512 µM
same,IC50,IST-SL2,> 0.512 µM
same,IC50,KMOE-2,> 0.512 µM
same,IC50,KYSE-180,0.269 µM
same,IC50,MG-63,> 0.512 µM
same,IC50,MKN-45,> 0.512 µM
same,IC50,MeWo,> 0.512 µM
same,IC50,NCI-H1437,> 0.512 µM
same,IC50,NCI-H1703,0.196 µM
same,IC50,NCI-H1755,> 0.512 µM
same,IC50,NCI-H1793,> 0.512 µM
same,IC50,NCI-H2009,> 0.512 µM
same,IC50,NCI-H2030,0.312 µM
same,IC50,NCI-H2228,> 0.512 µM
same,IC50,NCI-H2347,> 0.512 µM
same,IC50,NCI-H64,> 0.512 µM
same,IC50,NCI-H716,0.163 µM
same,IC50,PFSK-1,> 0.512 µM
same,IC50,RD,> 0.512 µM
same,IC50,RERF-LC-MS,> 0.512 µM
same,IC50,RL95-2,> 0.512 µM
same,IC50,RO82-W-1,> 0.512 µM
same,IC50,RPMI-2650,> 0.512 µM
same,IC50,Raji,> 0.512 µM
same,IC50,S-117,> 0.512 µM
same,IC50,SK-LU-1,0.315 µM
same,IC50,SK-MEL-24,0.398 µM
same,IC50,SNU-387,> 0.512 µM
same,IC50,SW13,> 0.512 µM
same,IC50,SW1417,> 0.512 µM
same,IC50,SW626,> 0.512 µM
same,IC50,T98G,0.193 µM
same,IC50,A673,> 0.512 µM
same,IC50,AGS,> 0.512 µM
same,IC50,ASPC1,> 0.512 µM
same,IC50,BC-3,> 0.512 µM
same,IC50,BFTC-905,> 0.512 µM
same,IC50,BFTC-909,> 0.512 µM
same,IC50,CA46,0.175 µM
same,IC50,CAL-120,0.476 µM
same,IC50,CAL-85-1,0.179 µM
same,IC50,UACC-812,> 0.512 µM
same,IC50,CAPAN-1,> 0.512 µM
